Series [1] has as its system C57Bl/6-N hepatocytes. The experiment in a line: Silencing of GLI family members by siRNA in hepatocytes, gene expression by qRT-PCR. The conditions noted are these: for expression of lipogenic transcription factor Srebp1 (mRNA): FIG. 5. Format: cell-based, murine. The source says:
Total RNA from hepatocytes, liver tissue and other organs was extracted using TRIzol (Peqlab, Erlangen). Total RNA from adipose tissue was extracted using the RNeasy Lipid Tissue mini Kit (Quiagen, Hilden). RNA was reverse transcribed using oligo(dt) primers and IM Promm II reverse transcriptase (Promega). The resulting cDNA samples were then quantified for each test gene using target gene-specific primers designed using the online tools Universal ProbeLibrary Probe-Finder software, Perl Primer and Primer 3.
(§1) The levels of all mRNA transcripts were determined in duplicate by qRT-PCR using the Light Cycler® 2.0 Instrument and the LightCycler® FastStart DNA Master PLUS SYBR Green I (Roche). Using the standard curve method, the absolute quantitation of specific PCR products for each primer set was generated. For normalization, β-actin was amplified from each sample.
To analyze the role of GLI family members in C57Bl/6-N hepatocytes on gene expression, murine hepatocytes were isolated and cultured for 72 h upon transfection with siRNA silencing either GLI1, GLI2 or GLI3.
GLI1-, GLI2- and GLI3-specific siRNAs and respective scrambled control siRNAs were purchased from Invitrogen. The following double stranded siRNAs were used for inhibition of GLI1, GLI2 and GLI3:
(§2) Freshly isolated hepatocytes were seeded at a density of 100.000 cells per well of 12-well plates in normal culture medium containing 10% FCS. After 4 h, serum-free medium was used and chemically synthesized siRNAs ([…] for GLI2 and GLI3, 50 nM for GLI1) were transfected with Interferin from Peqlab (Erlangen) according to the manufacturer's instructions. Twenty-four hours after transfection, the medium was changed and fresh medium without siRNA was added. Changes in gene expression were analyzed by qRT PCR at different time points up to 72 h post-transfection as indicated in figure legends using primers as described above in Example 2 and the following additional primers: […]

Series [2] has as its system C57Bl/6-N hepatocytes. The series is described as follows: Oil red O staining of neutral lipids in cultured hepatocytes transfected with GLI siRNA. It is filed as cell-based, murine. To be noted: 72 h after siRNA transfection, FIG. 8. Here is the method:
FIG. 8 Staining of neutral lipids by Oil red O in cultured hepatocytes transfected with a) mock, b) GLI1 siRNA, c) GLI2 siRNA and d) GLI3 siRNA determined after 72 h.
as §2
On the contrary neither GLI1 siRNA (FIG. 8b) nor GLI2 siRNA (FIG. 8c) was capable of mediating this effect.

Series [3] relates to murine C57BL/6-N hepatocytes. The series is described as follows: Silencing of Sufu by siRNA in hepatocytes, gene expression by real time PCR. It is filed as cell-based. Here is the method: as §1, §2
Sufu is a known inhibitor of hedgehog signalling. The transfection of hepatocytes with siRNA and real time PCR was performed as described in Example 3. The following additional primers were used: […]

For another series, the system named is human hepatocytes. The series is described as follows: Cyclopamine: accumulation of neutral lipids in cultured human hepatocytes (Nile red staining). Format: cell-based. To be noted: 10 μM cyclopamine, 72 h. Here is the method: (§3) Cyclopamine (Sigma) was dissolved in DMSO (10 mM). Mouse and human hepatocytes were incubated for 72 h in the presence of 10 μM Cyclopamine. Control cultures were incubated with culture medium containing vehicle (0.1% DMSO).
(§4) Fluorescent staining of neutral lipids in hepatocytes was performed using Nile red (Biomol). Hepatocytes were fixed with 4% buffered paraformaldehyde for 10 min. For Nile red staining, a 200 nM working solution in phosphate-buffered saline (PBS) was prepared from a 1 mM stock solution in DMSO and was added directly to the fixed cells. After 20 min of incubation at room temperature cells were washed in PBS. Nuclei were counterstained with DAPI (Sigma).
(§5) Primary hepatocytes from SLC mice were isolated by collagenase perfusion of the liver. Cell suspension was carefully cleared from non-parenchymal cells by differential centrifugation. Finally, hepatocytes were suspended in Williams Medium E containing 10% fetal calf serum and further additions as described (Klingmüller et al., 2006), and were plated onto 6-well or 12-well plates precoated with collagen type I (Klingmüller et al., 2006; Gebhardt et al., 1982). After 4 h, serum-free medium was used throughout cultivation. Cryopreserved human hepatocytes were purchased from TebuBio (Offenbach, Germany). […]

A further series deals with mouse hepatocytes. The series is described as follows: Cyclopamine: accumulation of neutral lipids in cultured mouse hepatocytes (Nile red staining). Format: cell-based. The conditions noted are these: 10 μM cyclopamine, 72 h. Here is the method:
as §3, §4, §5

For the compound “GLI3 siRNA: double stranded siRNA for inhibition of GLI3, SEQ ID No. 5 and 6, purchased from Invitrogen (chain 1 UAGCAAGGCCAUCUUGGUCUUCAGG; chain 2 CCUGAAGACCAAGAUGGCCUUGCUA; listed as RNA, chemistry not given here)”, the “IGF1 mRNA” value in the series with C57Bl/6-N hepatocytes [1] (Gli siRNA, FIG. 23A) is on record as “downregulates”. Besides, the “IGFBP1 mRNA” value with C57Bl/6-N hepatocytes [1] (Gli siRNA, FIG. 23B) was “upregulated”. Further, the “expression of lipogenic transcription factor PPAR-γ (mRNA)” value in the series with C57Bl/6-N hepatocytes [1] (siRNA vs nonsense RNA control, FIG. 4) was “significantly increased”. In the series on C57Bl/6-N hepatocytes [1] (siRNA vs nonsense RNA control), the “expression of lipogenic transcription factor Srebp1 (mRNA)” value is recorded as “significantly increased”. In addition, in the series on C57Bl/6-N hepatocytes [1] (siRNA vs nonsense RNA control, FIG. 6), the “expression of lipogenic enzyme ELOVL fatty acid elongase 6 (Elovl6)” value was “increased expression”. Further, the “expression of lipogenic enzyme fatty acid synthase (Fasn)” value in the series on C57Bl/6-N hepatocytes [1] (siRNA vs nonsense RNA control, FIG. 7) is recorded as “increased expression”. Moreover, the “accumulation of fat droplets (Oil red O staining of neutral lipids)” value in the series on C57Bl/6-N hepatocytes [2] is “pronounced accumulation of fat droplets”.
On to “GLI2 siRNA: double stranded siRNA for inhibition of GLI2, SEQ ID No. 3 and 4, purchased from Invitrogen (chain 1 CCACAACCACAACGUUGCUCAGACA; chain 2 UGUCUGAGCAAGCUUGUGGUUGUGG; listed as RNA, chemistry not given here)”, for which the “expression of lipogenic transcription factor Srebp1 (mRNA)” value with C57Bl/6-N hepatocytes [1] (siRNA vs nonsense RNA control) was “not”. Besides, the “accumulation of fat droplets (Oil red O staining of neutral lipids)” value with C57Bl/6-N hepatocytes [2] is “comparable phenotype as wild type hepatocytes”.
The like results for “GLI1 siRNA: double stranded siRNA for inhibition of GLI1, SEQ ID No. 1 and 2, purchased from Invitrogen (chain 1 UGGAGAACCUUAGGCUGGAUCAGCU; chain 2 AGCUGAUCCAGCCUAAGGUUCUCCA; listed as RNA, chemistry not given here)” were, in that order, “not” and “comparable phenotype as wild type hepatocytes”.
In the case of “Sufu siRNA: double stranded siRNA inhibiting Sufu, SEQ ID No. 7 and 8; preferred GLI3 activating siRNA (chain 1 CCCUUGGACUAUGUUAGCAUGUACA; chain 2 UGUACAUGCUAACAUAGUCCAAGGG; listed as RNA, chemistry not given here)”, in series [3] (FIG. 9), the “expression of GLI2” value was “increased expression”, the “expression of GLI3” value is listed as “increased expression”, the “expression of Indian hedgehog (IHH)” value is listed as “increased expression” and the “silencing of Sufu” value was “Successful silencing”. In addition, in series [3] (FIG. 10), the “expression of GATA4” value was “increased expression”, the “hepatocellular expression of PPAR-γ” value is reported as “reduced” and the “hepatocellular expression of Srebp1” value is given as “reduced”. Also, in series [3] (FIG. 19), the “expression of Cyp17A1” value is “decreased expression”.
As to `CC1=C2C[C@H]3[C@@H](CC=C4C[C@@H](O)CC[C@@]43C)[C@@H]2CC[C@]12O[C@@H]1C[C@H](C)CN[C@H]1[C@H]2C` [cyclopamine, Cyclopamine], the “steatosis (accumulation of neutral lipids)” value in the series on human hepatocytes and with mouse hepatocytes was “marked steatosis” each time.

The record behind these values is patent publication US9540648B2, “Therapeutic use of activators of zinc finger protein GL13” (Universität Leipzig, priority 2012, dated 2017).
